# Data: US10287301B2 (Achillion Pharmaceuticals, Inc., priority 2015, dated 2019)
# Target: Human Factor D (Homo sapiens (Human), UniProt P00746)
# Assay: Human Factor D Assay
# Format: biochemical
# Settings: Human Factor D, Table 3; read-out: IC50
# Method in brief: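 IC50 values derive from nonlinear regression of Factor D reaction rates against compound concentration. The enzyme, purified from human serum, is used at 80 nM final with a 5 min room-temperature compound preincubation in 50 mM Tris, 1M NaCl, pH 7.5, before 100 μM Z-L-Lys-SBzl plus 100 μM DTNB are added.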
# Chain of Human Factor D (P00746 26-253): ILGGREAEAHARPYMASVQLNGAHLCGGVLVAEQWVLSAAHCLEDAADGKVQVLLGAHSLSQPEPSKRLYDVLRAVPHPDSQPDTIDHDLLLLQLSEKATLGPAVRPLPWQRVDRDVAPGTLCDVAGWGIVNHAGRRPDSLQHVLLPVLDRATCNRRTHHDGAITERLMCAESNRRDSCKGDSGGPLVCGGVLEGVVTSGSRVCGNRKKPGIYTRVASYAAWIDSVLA
row,SMILES,IC50 [nM]
1,"CC(=O)c1nn(CC(=O)N2C[C@H](F)C[C@H]2C(=O)Nc2cccc(Br)n2)c2ccc(-c3cn[nH]c3)cc12 [Compound 707, (2S,4R)-1-(2-(3-acetyl-5-(1H-pyrazol-4-yl)-1H-indazol-1-yl)acetyl)-N-(6-bromopyridin-2-yl)-4-fluoropyrrolidine-2-carboxamide]",< 1000
2,"CC(=O)c1nn(CC(=O)N2CCC[C@H]2C(=O)Nc2cccc(C)n2)c2ccc(-c3cnc4ncccn34)cc12 [Compound 708, (S)-1-(2-(3-Acetyl-5-(imidazo[1,2-a]pyrimidin-3-yl)-1H-indazol-1-yl)acetyl)-N-(6-methylpyridin-2-yl)pyrrolidine-2-carboxamide]",< 1000
3,"CC(=O)c1nn(CC(=O)N2CC[C@H]2C(=O)Nc2cccc(C)n2)c2ccc(-c3cnc4ncccn34)cc12 [Compound 709, (S)-1-(2-(3-Acetyl-5-(imidazo[1,2-a]pyrimidin-3-yl)-1H-indazol-1-yl)acetyl)-N-(6-methylpyridin-2-yl)azetidine-2-carboxamide]",< 1000
4,"CC(=O)n1cc(CC(=O)N2C[C@H](F)C[C@H]2C(=O)Nc2cccc(-c3ccccc3Cl)c2F)c2ccc(-c3cnc(C)nc3)cc21 [Compound 710, (2S,4R)-1-(2-(1-Acetyl-6-(2-methylpyrimidin-5-yl)-1H-indol-3-yl)acetyl)-N-(2′-chloro-2-fluoro-[1,1′-biphenyl]-3-yl)-4-fluoropyrrolidine-2-carboxamide]",< 1000
5,"CC(=O)n1cc(CC(=O)N2C[C@H](F)C[C@H]2C(=O)Nc2cccc(Br)n2)c2ccc(-c3cnc(C)nc3)cc21 [Compound 711, (2S,4R)-1-(2-(1-Acetyl-6-(2-methylpyrimidin-5-yl)-1H-indol-3-yl)acetyl)-N-(6-bromopyridin-2-yl)-4-fluoropyrrolidine-2-carboxamide]",< 1000
6,"CC(=O)c1nn(CC(=O)N2C[C@H](F)C[C@H]2C(=O)Nc2cccc(Br)n2)c2cc(C(=O)N(C)C)c(-c3cnc(C)nc3)cc12 [Compound 722, 3-Acetyl-1-(2-((2S,4R)-2-((6-bromopyridin-2-yl)carbamoyl)-4-fluoropyrrolidin-1-yl)-2-oxoethyl)-N,N-dimethyl-5-(2-methylpyrimidin-5-yl)-1H-indazole-6-carboxamide]",< 1000
7,"CC(=O)c1nn(CC(=O)N2[C@H](C)CC[C@H]2C(=O)Nc2nc(Br)ccc2C)c2ccc(-c3cnc(C)nc3)cc12 [Compound 731, (2S,5R)-1-(2-(3-Acetyl-5-(2-methylpyrimidin-5-yl)-1H-indazol-1-yl)acetyl)-N-(6-bromo-3-methylpyridin-2-yl)-5-methylpyrrolidine-2-carboxamide]",< 1000
8,"CC(=O)c1nn(CC(=O)N2C[C@H](F)C[C@H]2C(=O)NC2(C#N)CC2)c2ccc(-c3cnc(C)nc3)cc12 [Compound 739, (2S,4R)-1-(2-(3-acetyl-5-(2-methylpyrimidin-5-yl)-1H-indazol-1-yl)acetyl)-N-(1-cyanocyclopropyl)-4-fluoropyrrolidine-2-carboxamide]",< 1000
9,"CC(=O)c1nn(CC(=O)N2C[C@H](F)C[C@H]2C(=O)Nc2cccc(Br)n2)c2ccc(-c3cnc(N)[n+]([O-])c3)cc12 [Compound 741, 5-(3-acetyl-1-(2-((2S,4R)-2-((6-Bromopyridin-2-yl)carbamoyl)-4-fluoropyrrolidin-1-yl)-2-oxoethyl)-1H-indazol-5-yl)-2-aminopyrimidine 1-oxide]",< 1000
10,"CC(=O)c1nn(CC(=O)N2C[C@H](F)C[C@H]2C(=O)Nc2cccc(Br)n2)c2ccc(-c3cnc(C)[n+]([O-])c3)cc12 [Compound 742, 5-(3-Acetyl-1-(2-((2S,4R)-2-((6-bromopyridin-2-yl)carbamoyl)-4-fluoropyrrolidin-1-yl)-2-oxoethyl)-1H-indazol-5-yl)-2-methylpyrimidine 1-oxide]",< 1000

# The remaining lines, values ahead:
row,IC50 [nM],SMILES
1,> 10000,"Cc1cccc(NC(=O)[C@@H]2C[C@@H](F)CN2C(=O)Cn2nc(C(N)=O)c3sc(-c4cnc5cc(C)nn5c4)nc32)n1 [Compound 714, 1-(2-((2S,4R)-4-Fluoro-2-(6-methylpyridin-2-ylcarbamoyl)pyrrolidin-1-yl)-2-oxoethyl)-5-(2-methylpyrazolo[1,5-a]pyrimidin-6-yl)-1H-pyrazolo[3,4-d]thiazole-3-carboxamide]"
2,> 10000,"Cc1cccc(NC(=O)[C@@H]2C[C@@H](F)CN2C(=O)Cn2nc(C(N)=O)c3sc(-c4cnc(C)nc4)nc32)n1 [Compound 715, 1-(2-((2S,4R)-4-Fluoro-2-(6-methylpyridin-2-ylcarbamoyl)pyrrolidin-1-yl)-2-oxoethyl)-5-(2-methylpyrimidin-5-yl)-1H-pyrazolo[3,4-d]thiazole-3-carboxamide]"
3,< 1000,"CC(=O)c1ccc(Cl)c(-c2cccc(NC(=O)[C@@H]3C[C@H]4C[C@H]4N3C(=O)Cn3nc(C(N)=O)c4sc(-c5cnc6cc(C)nn6c5)nc43)c2F)c1 [Compound 716, 1-(2-((1R,3S,5R)-3-(5′-Acetyl-2′-chloro-2-fluorobiphenyl-3-ylcarbamoyl)-2-azabicyclo[3.1.0]hexan-2-yl)-2-oxoethyl)-5-(2-methylpyrazolo[1,5-a]pyrimidin-6-yl)-1H-pyrazolo[3,4-d]thiazole-3-carboxamide]"
4,< 1000,"CC(=O)c1ccc(Cl)c(-c2cccc(NC(=O)[C@@H]3C[C@H]4C[C@H]4N3C(=O)Cn3nc(C(N)=O)c4sc(-c5cnc(C)nc5)nc43)c2F)c1 [Compound 717, 1-(2-((1R,3S,5R)-3-(5′-Acetyl-2′-chloro-2-fluorobiphenyl-3-ylcarbamoyl)-2-azabicyclo[3.1.0]hexan-2-yl)-2-oxoethyl)-5-(2-methylpyrimidin-5-yl)-1H-pyrazolo[3,4-d]thiazole-3-carboxamide]"
5,> 10000,"CNc1ncc2cc(-c3cn(CC(=O)N4C[C@H](F)C[C@H]4C(=O)Nc4cccc(Br)n4)nc3C(N)=O)ccc2n1 [Compound 723, 1-(2-((2S,4R)-2-((6-Bromopyridin-2-yl)carbamoyl)-4-fluoropyrrolidin-1-yl)-2-oxoethyl)-4-(2-(methylamino)quinazolin-6-yl)-1H-pyrazole-3-carboxamide]"
6,> 10000,"NC(=O)c1nn(CC(=O)N2C[C@H](F)C[C@H]2C(=O)Nc2cccc(Br)n2)cc1-c1cnn(C2CC2)c1 [Compound 726, 1-(2-((2S,4R)-2-((6-Bromopyridin-2-yl)carbamoyl)-4-fluoropyrrolidin-1-yl)-2-oxoethyl)-1′-cyclopropyl-1H,1′H-[4,4′-bipyrazole]-3-carboxamide]"
7,> 10000,"CC(=O)N1CC=C(c2cn(CC(=O)N3C[C@H](F)C[C@H]3C(=O)Nc3cccc(Br)n3)nc2C(N)=O)CC1 [Compound 727, 4-(1-acetyl-1,2,3,6-Tetrahydropyridin-4-yl)-1-(2-((2S,4R)-2-((6-bromopyridin-2-yl)carbamoyl)-4-fluoropyrrolidin-1-yl)-2-oxoethyl)-1H-pyrazole-3-carboxamide]"
8,> 10000,"NC(=O)c1nn(CC(=O)N2C[C@H](F)C[C@H]2C(=O)Nc2cccc(Br)n2)cc1-c1cnn(-c2ncc(F)cn2)c1 [Compound 729, 1-(2-((2S,4R)-2-((6-Bromopyridin-2-yl)carbamoyl)-4-fluoropyrrolidin-1-yl)-2-oxoethyl)-1′-(5-fluoropyrimidin-2-yl)-1H,1′H-[4,4′-bipyrazole]-3-carboxamide]"
